Reference: US8192962B2, “Processes for detecting toxic substances” (Daikin Industries, Ltd., priority 2001, dated 2012)

Legend:
DNA repair protein genes = assay: DNA chip mRNA expression in yeast, DNA repair protein genes (Table 3); type: cell-based, Saccharomyces cerevisiae S288C; conditions: incubated two hours, concentrations as in the 1st table
Outline: (§1)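 Value is the scanned fluorescence intensity ratio of exposed versus chemical-free cells. Log-phase S288C yeast in YPD at 25° C. received one toxic substance for two hours, dosed to slow growth without killing; Cy3/Cy5-labeled cDNA from oligo-dT-purified mRNA was hybridized to a whole-genome chip at 65° C.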

[1] = tested on: Detoxification protein genes; assay: DNA chip mRNA expression in yeast, detoxification protein genes (Table 8); type: cell-based, Saccharomyces cerevisiae S288C
Outline: as §1

C[S+](C)[O-] [(15), dimethylsulfoxide]
The level of expressed mRNA in the presence of chemical substance/The level of expressed mRNA in the absence of chemical substance (DNA repair protein genes; yeast gene YBR272C): 0.5
The level of expressed mRNA in the presence of chemical substance/The level of expressed mRNA in the absence of chemical substance (DNA repair protein genes; yeast gene YCR014C): 0.7
The level of expressed mRNA in the presence of chemical substance/The level of expressed mRNA in the absence of chemical substance (DNA repair protein genes; yeast gene YDL059C): 0.7
The level of expressed mRNA in the presence of chemical substance/The level of expressed mRNA in the absence of chemical substance (DNA repair protein genes; yeast gene YDR054C): 1.6
The level of expressed mRNA in the presence of chemical substance/The level of expressed mRNA in the absence of chemical substance (DNA repair protein genes; yeast gene YEL037C): 1.6
The level of expressed mRNA in the presence of chemical substance/The level of expressed mRNA in the absence of chemical substance (DNA repair protein genes; yeast gene YGL091C): 0.7
The level of expressed mRNA in the presence of chemical substance/The level of expressed mRNA in the absence of chemical substance (DNA repair protein genes; yeast gene YGL249W): 0.7
The level of expressed mRNA in the presence of chemical substance/The level of expressed mRNA in the absence of chemical substance (DNA repair protein genes; yeast gene YGR180C): 1.3
The level of expressed mRNA in the presence of chemical substance/The level of expressed mRNA in the absence of chemical substance (DNA repair protein genes; yeast gene YIL072W): 1.4
The level of expressed mRNA in the presence of chemical substance/The level of expressed mRNA in the absence of chemical substance (DNA repair protein genes; yeast gene YIL143C): 1.3
The level of expressed mRNA in the presence of chemical substance/The level of expressed mRNA in the absence of chemical substance (DNA repair protein genes; yeast gene YNL250W): 1.3
The level of expressed mRNA in the presence of chemical substance/The level of expressed mRNA in the absence of chemical substance (DNA repair protein genes; yeast gene YNL261W): 0.7
The level of expressed mRNA in the presence of chemical substance/The level of expressed mRNA in the absence of chemical substance (DNA repair protein genes; yeast gene YPL164C): 1.3
The level of expressed mRNA in the presence of chemical substance/The level of expressed mRNA in the absence of chemical substance ([1]; yeast gene YBL064C): 1.3
The level of expressed mRNA in the presence of chemical substance/The level of expressed mRNA in the absence of chemical substance ([1]; yeast gene YBR008C): 0.8
The level of expressed mRNA in the presence of chemical substance/The level of expressed mRNA in the absence of chemical substance ([1]; yeast gene YBR244W): 0.4
The level of expressed mRNA in the presence of chemical substance/The level of expressed mRNA in the absence of chemical substance ([1]; yeast gene YBR293W): 3.1
The level of expressed mRNA in the presence of chemical substance/The level of expressed mRNA in the absence of chemical substance ([1]; yeast gene YCR083W): 1.0
The level of expressed mRNA in the presence of chemical substance/The level of expressed mRNA in the absence of chemical substance ([1]; yeast gene YDL100C): 1.0
The level of expressed mRNA in the presence of chemical substance/The level of expressed mRNA in the absence of chemical substance ([1]; yeast gene YDR256C): 1.0
The level of expressed mRNA in the presence of chemical substance/The level of expressed mRNA in the absence of chemical substance ([1]; yeast gene YDR453C): 2.3
The level of expressed mRNA in the presence of chemical substance/The level of expressed mRNA in the absence of chemical substance ([1]; yeast gene YDR513W): 1.3
The level of expressed mRNA in the presence of chemical substance/The level of expressed mRNA in the absence of chemical substance ([1]; yeast gene YDR538W): 1.0
The level of expressed mRNA in the presence of chemical substance/The level of expressed mRNA in the absence of chemical substance ([1]; yeast gene YER185W): 1.7
The level of expressed mRNA in the presence of chemical substance/The level of expressed mRNA in the absence of chemical substance ([1]; yeast gene YGL013C): 1.0
The level of expressed mRNA in the presence of chemical substance/The level of expressed mRNA in the absence of chemical substance ([1]; yeast gene YGR088W): 0.7
The level of expressed mRNA in the presence of chemical substance/The level of expressed mRNA in the absence of chemical substance ([1]; yeast gene YGR138C): 4.5
The level of expressed mRNA in the presence of chemical substance/The level of expressed mRNA in the absence of chemical substance ([1]; yeast gene YGR197C): 1.0
The level of expressed mRNA in the presence of chemical substance/The level of expressed mRNA in the absence of chemical substance ([1]; yeast gene YGR209C): 1.3
The level of expressed mRNA in the presence of chemical substance/The level of expressed mRNA in the absence of chemical substance ([1]; yeast gene YHL040C): 3.4
The level of expressed mRNA in the presence of chemical substance/The level of expressed mRNA in the absence of chemical substance ([1]; yeast gene YHR008C): 1.7
The level of expressed mRNA in the presence of chemical substance/The level of expressed mRNA in the absence of chemical substance ([1]; yeast gene YHR048W): 0.9
The level of expressed mRNA in the presence of chemical substance/The level of expressed mRNA in the absence of chemical substance ([1]; yeast gene YHR053C): 0.3
The level of expressed mRNA in the presence of chemical substance/The level of expressed mRNA in the absence of chemical substance ([1]; yeast gene YHR055C): 0.5
The level of expressed mRNA in the presence of chemical substance/The level of expressed mRNA in the absence of chemical substance ([1]; yeast gene YJL101C): 0.5
The level of expressed mRNA in the presence of chemical substance/The level of expressed mRNA in the absence of chemical substance ([1]; yeast gene YJR104C): 1.3
The level of expressed mRNA in the presence of chemical substance/The level of expressed mRNA in the absence of chemical substance ([1]; yeast gene YKL026C): 0.8
The level of expressed mRNA in the presence of chemical substance/The level of expressed mRNA in the absence of chemical substance ([1]; yeast gene YKL064W): 0.7
The level of expressed mRNA in the presence of chemical substance/The level of expressed mRNA in the absence of chemical substance ([1]; yeast gene YKR066C): 0.6
The level of expressed mRNA in the presence of chemical substance/The level of expressed mRNA in the absence of chemical substance ([1]; yeast gene YLL028W): 3.1
The level of expressed mRNA in the presence of chemical substance/The level of expressed mRNA in the absence of chemical substance ([1]; yeast gene YLR043C): 0.5
The level of expressed mRNA in the presence of chemical substance/The level of expressed mRNA in the absence of chemical substance ([1]; yeast gene YLR046C): 0.8
The level of expressed mRNA in the presence of chemical substance/The level of expressed mRNA in the absence of chemical substance ([1]; yeast gene YML116W): 1.9
The level of expressed mRNA in the presence of chemical substance/The level of expressed mRNA in the absence of chemical substance ([1]; yeast gene YMR038C): 0.6
The level of expressed mRNA in the presence of chemical substance/The level of expressed mRNA in the absence of chemical substance ([1]; yeast gene YNL241C): 7.0
The level of expressed mRNA in the presence of chemical substance/The level of expressed mRNA in the absence of chemical substance ([1]; yeast gene YNL259C): 0.7
The level of expressed mRNA in the presence of chemical substance/The level of expressed mRNA in the absence of chemical substance ([1]; yeast gene YOL158C): 0.9
The level of expressed mRNA in the presence of chemical substance/The level of expressed mRNA in the absence of chemical substance ([1]; yeast gene YOR153W): 3.6
The level of expressed mRNA in the presence of chemical substance/The level of expressed mRNA in the absence of chemical substance ([1]; yeast gene YOR251C): 0.6
The level of expressed mRNA in the presence of chemical substance/The level of expressed mRNA in the absence of chemical substance ([1]; yeast gene YOR273C): 0.8
The level of expressed mRNA in the presence of chemical substance/The level of expressed mRNA in the absence of chemical substance ([1]; yeast gene YPR200C): 0.7
